Experiment [1] concerns the target T1, Tyrosinase (Agaricus bisporus, UniProt O42713).
T1 sequence (O42713 whole entry): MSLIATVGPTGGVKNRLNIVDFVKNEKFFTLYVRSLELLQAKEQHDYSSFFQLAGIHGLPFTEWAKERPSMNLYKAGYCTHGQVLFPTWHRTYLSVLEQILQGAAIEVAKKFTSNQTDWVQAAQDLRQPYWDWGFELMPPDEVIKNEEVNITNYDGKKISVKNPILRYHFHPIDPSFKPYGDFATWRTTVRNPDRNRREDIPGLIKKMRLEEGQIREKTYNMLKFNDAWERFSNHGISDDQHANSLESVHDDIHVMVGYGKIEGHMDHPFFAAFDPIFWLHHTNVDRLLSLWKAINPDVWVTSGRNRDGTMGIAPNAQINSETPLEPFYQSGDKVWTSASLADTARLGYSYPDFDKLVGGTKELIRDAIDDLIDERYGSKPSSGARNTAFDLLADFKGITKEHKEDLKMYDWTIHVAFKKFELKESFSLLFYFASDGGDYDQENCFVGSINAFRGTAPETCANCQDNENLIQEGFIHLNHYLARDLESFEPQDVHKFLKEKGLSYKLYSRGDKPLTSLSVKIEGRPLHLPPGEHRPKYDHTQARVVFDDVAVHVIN
Put plainly: (§1) Inhibition of mushroom tyrosinase diphenolase activity assessed as reduction in dopachrome formation using L-DOPA as substrate preincubated for 20 mins followed by substrate addition measured for 1 min.

Experiment [2] addresses Mushroom tyrosinase (Agaricus bisporus, UniProt O42713+Q00024+C7FF04+C7FF05). Put plainly: Inhibition of mushroom tyrosinase using L-tyrosine as substrate measured after 20 mins.
Experiment [3] deals with T2, Tyrosinase (Agaricus bisporus) (UniProt O42713).
T2 sequence (whole entry): T1 sequence (O42713 whole entry)
The description is as §1.

In experiment [4] the target is T2, Tyrosinase (Agaricus bisporus). Put plainly: Competitive inhibition of mushroom tyrosinase up to 1.2 uM using varying levels of L-DOPA as substrate preincubated for 20 mins followed by substrate addition measured for 1 min by Lineweaver-Burk plot analysis.

Drawing on ChEMBL document CHEMBL4000199, “Synthesis and biological evaluation of novel hydroxybenzaldehyde-based kojic acid analogues as inhibitors of mushroom tyrosinase” (Bioorg Med Chem Lett, 2017), this text covers IC50 and inhibition for 15 molecules.

SMILES strings stand for the structures. pIC50: −log10 of the molar value. The source made the active and inactive calls. The calls are words filed in the database; no cut-off is given here.

On to `Cc1nnc(SCc2cc(=O)c(O)co2)n1NCc1cccc(O)c1`, for which the pIC50 (usually the IC50 on a negative log10 scale, so that one unit is a factor of ten) in experiment [1] was 4.90.

Consider `Cc1nnc(SCc2cc(=O)c(O)co2)n1NCc1ccccc1O`, for which the pIC50 in experiment [1] was 4.99.

On to `O=c1cc(CSc2nncn2/N=C/c2ccc(O)cc2)occ1O`, for which the pIC50 in experiment [1] is 5.07.

Turning to `O=c1cc(CSc2nnc(-c3ccc(Cl)cc3)n2NCc2ccccc2O)occ1O`, the pIC50 in experiment [1] is 5.77.

Consider `CCc1nnc(SCc2cc(=O)c(O)co2)n1NCc1ccccc1O`, for which the pIC50 in experiment [1] was 5.12.

Take `Cc1ccc(-c2nnc(SCc3cc(=O)c(O)co3)n2NCc2ccccc2O)cc1`: the pIC50 in experiment [1] is 5.42.

Consider `O=c1cc(CSc2ccc(O)cc2)occ1O`, for which, in experiment [2], the IC50 (usually the concentration needed to halve the response being measured) turned out to be 0.54 µM.

For the molecule `O=c1cc(CSc2nncn2NCc2ccccc2O)occ1O`, in experiment [1], the pIC50 was 5.23.

Turning to `O=c1cc(CSc2nnc(-c3cccc(Cl)c3)n2NCc2ccccc2O)occ1O`, the pIC50 in experiment [1] was 5.60.

Regarding `O=c1cc(CSc2nnc(-c3ccccc3Cl)n2/N=C/c2ccc(O)c(O)c2)occ1O`, the pIC50 in experiment [1] was 5.28.

In the case of `Cc1nnc(SCc2cc(=O)c(O)co2)n1NCc1ccc(O)cc1O`, the pIC50 in experiment [1] is 5.24.

In the case of `O=c1cc(CSc2nncn2/N=C/c2ccc(O)cc2O)occ1O`, the pIC50 in experiment [1] is 5.02.

Turning to `O=c1cc(CSc2nnc(-c3ccccc3)n2NCc2ccc(O)cc2O)occ1O`, the inhibition entry in experiment [3] is “Dose-dependent effect”. For the same molecule, the pIC50 in experiment [1] was 5.87. The inhibition result in experiment [4] is “Active”.

As for `COc1cc(/C=N/n2cnnc2SCc2cc(=O)c(O)co2)ccc1O`, the pIC50 in experiment [1] was 4.76.

On to `O=c1cc(CSc2nnc(-c3ccccc3)n2NCc2ccccc2O)occ1O`, for which the pIC50 in experiment [1] was 5.82.
